Source: ChEMBL document CHEMBL4622872, “Discovery of DS-1971a, a Potent, Selective NaV1.7 Inhibitor” (J Med Chem, 2020)

Columns and labels:
[1] = Clearance in Sprague-Dawley rat at 1 mg/kg, iv by LC-MS/MS analysis; format: ADME, organism-based; conditions: in vivo
[2] = Volume of distribution at steady state in Sprague-Dawley rat at 1 mg/kg, iv by LC-MS/MS analysis; format: ADME, organism-based; conditions: in vivo, read-out: Vdss
[3] = Toxicity in Crl:CD1(ICR) mouse assessed as effect on motor coordination by measuring NOEL administered as single dose measured after 0.5 to 2 hrs by rotarod test; conditions: in vivo
[4] = Oral bioavailability in ddy mouse at 1 mg/kg by LC-MS/MS analysis; format: ADME, organism-based; conditions: in vivo
[5] = AUC (0 to 24 hrs) in female cynomolgus monkey at 1000 mg/kg administered for 9 months measured 24 hrs post last dose with 1 month recovery; format: ADME, organism-based, Macaca fascicularis; set-up: time < 24 hr, dose 1000 mg/kg; conditions: in vivo
[6] = Half life in ddy mouse at 3 mg/kg, iv or po by LC-MS/MS analysis; format: ADME, organism-based; conditions: in vivo
[7] = Toxicity in Crl:CD1(ICR) mouse assessed as effect on central nervous system by measuring NOEL administered as single dose measured up to 24 hrs by Irwin's test; conditions: in vivo
[8] = Tmax in female cynomolgus monkey at 1000 mg/kg administered for 9 months measured 24 hrs post last dose with 1 month recovery; format: ADME, organism-based, Macaca fascicularis; conditions: in vivo
[9] = Half life in Beagle dog at 1 mg/kg, iv or po by LC-MS/MS analysis; format: ADME, organism-based, Canis lupus familiaris; conditions: in vivo
[10] = Half life in ddy mouse at 1 mg/kg, iv or po by LC-MS/MS analysis; format: ADME, organism-based; conditions: in vivo
[11] = Chronic toxicity in female cynomolgus monkey assessed as NOAEL administered for 9 months; set-up: species or system Macaca fascicularis; conditions: in vivo
[12] = Cmax in Sprague-Dawley rat at 1 mg/kg, iv or po by LC-MS/MS analysis; format: ADME, organism-based; conditions: in vivo
[13] = Tmax in Beagle dog at 1 mg/kg, iv or po by LC-MS/MS analysis; format: ADME, organism-based, Canis lupus familiaris; conditions: in vivo
[14] = Cmax in ddy mouse at 1 mg/kg, iv or po by LC-MS/MS analysis; format: ADME, organism-based; conditions: in vivo
[15] = Tmax in female Crl:CD1(ICR) mouse at 1000 mg/kg administered for 6 months measured 24 hrs post last dose with 1 month recovery; format: ADME, organism-based; conditions: in vivo
[16] = Cmax in male cynomolgus monkey at 1000 mg/kg administered for 9 months measured 24 hrs post last dose with 1 month recovery; format: ADME, organism-based, Macaca fascicularis; set-up: dose 1000 mg/kg; conditions: in vivo
[17] = Chronic toxicity in male Crl:CD1(ICR) mouse assessed as NOAEL administered for 6 months; conditions: in vivo
[18] = AUC (infinity) in ddy mouse at 3 mg/kg, iv or po by LC-MS/MS analysis; format: ADME, organism-based; conditions: in vivo
[19] = Toxicity in Crl:CD1(ICR) mouse assessed as effect on respiratory system by measuring NOEL administered as single dose measured after 0.5 to 24 hrs by WBP method; conditions: in vivo
[20] = Volume of distribution at steady state in Beagle dog at 1 mg/kg, iv by LC-MS/MS analysis; format: ADME, organism-based, Canis lupus familiaris; conditions: in vivo, read-out: Vdss
[21] = AUC (0 to 24 hrs) in male cynomolgus monkey at 1000 mg/kg administered for 9 months measured 24 hrs post last dose with 1 month recovery; format: ADME, organism-based, Macaca fascicularis; set-up: time < 24 hr, dose 1000 mg/kg; conditions: in vivo
[22] = Toxicity in cynomolgus monkey assessed as effect on cardiovascular system by measuring NOEL administered as single dose measured after 1 to 24 hrs by telemetry; set-up: species or system Macaca fascicularis; conditions: in vivo
[23] = Cmax in female cynomolgus monkey at 1000 mg/kg administered for 9 months measured 24 hrs post last dose with 1 month recovery; format: ADME, organism-based, Macaca fascicularis; set-up: dose 1000 mg/kg; conditions: in vivo
[24] = Stability of the compound in mouse liver microsomes assessed as parent compound remaining measured after 0.5 hrs; format: ADME, Microsome; conditions: microsomes, 0.5 h
[25] = Oral bioavailability in Sprague-Dawley rat at 1 mg/kg by LC-MS/MS analysis; format: ADME, organism-based; conditions: in vivo
[26] = AUC (infinity) in ddy mouse at 1 mg/kg, iv or po by LC-MS/MS analysis; format: ADME, organism-based; conditions: in vivo
[27] = Tmax in male Crl:CD1(ICR) mouse at 1000 mg/kg administered for 6 months measured 24 hrs post last dose; format: ADME, organism-based; conditions: in vivo
[28] = Volume of distribution at steady state in ddy mouse at 1 mg/kg, iv by LC-MS/MS analysis; format: ADME, organism-based; conditions: in vivo, read-out: Vdss
[29] = Chronic toxicity in female Crl:CD1(ICR) mouse assessed as NOAEL administered for 6 months; conditions: in vivo
[30] = Cmax in cynomolgus monkey at 1 mg/kg, iv or po by LC-MS/MS analysis; format: ADME, organism-based, Macaca fascicularis; conditions: in vivo
[31] = Stability of the compound in human liver microsomes assessed as parent compound remaining measured after 0.5 hrs; format: ADME, Microsome; conditions: read-out: Stability
[32] = Clearance in ddy mouse at 1 mg/kg, iv by LC-MS/MS analysis; format: ADME, organism-based; conditions: in vivo
[33] = Oral bioavailability in cynomolgus monkey at 1 mg/kg by LC-MS/MS analysis; format: ADME, organism-based, Macaca fascicularis; conditions: in vivo
[34] = Tmax in ddy mouse at 3 mg/kg, iv or po by LC-MS/MS analysis; format: ADME, organism-based; conditions: in vivo
[35] = Stability of the compound in dog liver microsomes assessed as parent compound remaining measured after 0.5 hrs; format: ADME, Canis lupus familiaris, Microsome; conditions: read-out: Stability
[36] = Tmax in ddy mouse at 1 mg/kg, iv or po by LC-MS/MS analysis; format: ADME, organism-based; conditions: in vivo
[37] = Cmax in ddy mouse at 3 mg/kg, iv or po by LC-MS/MS analysis; format: ADME, organism-based; conditions: in vivo
[38] = Clearance in ddy mouse at 3 mg/kg, iv by LC-MS/MS analysis; format: ADME, organism-based; conditions: in vivo
[39] = Cmax in Beagle dog at 1 mg/kg, iv or po by LC-MS/MS analysis; format: ADME, organism-based, Canis lupus familiaris; conditions: in vivo
[40] = Volume of distribution at steady state in cynomolgus monkey at 1 mg/kg, iv by LC-MS/MS analysis; format: ADME, organism-based, Macaca fascicularis; conditions: in vivo, read-out: Vdss
[41] = Clearance in cynomolgus monkey at 1 mg/kg, iv by LC-MS/MS analysis; format: ADME, organism-based, Macaca fascicularis; conditions: in vivo
[42] = AUC (infinity) in Sprague-Dawley rat at 1 mg/kg, iv or po by LC-MS/MS analysis; format: ADME, organism-based; conditions: in vivo
[43] = Tmax in Sprague-Dawley rat at 1 mg/kg, iv or po by LC-MS/MS analysis; format: ADME, organism-based; conditions: in vivo
[44] = AUC (infinity) in cynomolgus monkey at 1 mg/kg, iv or po by LC-MS/MS analysis; format: ADME, organism-based, Macaca fascicularis; conditions: in vivo
[45] = Half life in Sprague-Dawley rat at 1 mg/kg, iv or po by LC-MS/MS analysis; format: ADME, organism-based; conditions: in vivo
[46] = AUC (0 to 24 hrs) in female Crl:CD1(ICR) mouse at 1000 mg/kg administered for 6 months measured 24 hrs post last dose with 1 month recovery; format: ADME, organism-based; set-up: dose 1000 mg/kg, time < 24 hr; conditions: in vivo
[47] = Half life in cynomolgus monkey at 1 mg/kg, iv or po by LC-MS/MS analysis; format: ADME, organism-based, Macaca fascicularis; conditions: in vivo
[48] = Clearance in Beagle dog at 1 mg/kg, iv by LC-MS/MS analysis; format: ADME, organism-based, Canis lupus familiaris; conditions: in vivo
[49] = Oral bioavailability in Beagle dog at 1 mg/kg by LC-MS/MS analysis; format: ADME, organism-based, Canis lupus familiaris; conditions: in vivo
[50] = AUC (0 to 24 hrs) in male Crl:CD1(ICR) mouse at 1000 mg/kg administered for 6 months measured 24 hrs post last dose; format: ADME, organism-based; set-up: dose 1000 mg/kg, time < 24 hr; conditions: in vivo
[51] = Tmax in male cynomolgus monkey at 1000 mg/kg administered for 9 months measured 24 hrs post last dose with 1 month recovery; format: ADME, organism-based, Macaca fascicularis; conditions: in vivo
[52] = Aqueous thermodynamic solubility of the compound at pH 6.8 measured after 4 hrs by UV-HPLC analysis; format: physicochemical; conditions: buffer, pH 6.8, 4 h; 4 h
[53] = Toxicity in Crl:CD1(ICR) mouse assessed as effect on spontaneous locomotor activity by measuring NOEL administered as single dose measured at 10 mins interval starting from 2 to 3 hrs; conditions: in vivo
[54] = Volume of distribution at steady state in ddy mouse at 3 mg/kg, iv by LC-MS/MS analysis; format: ADME, organism-based; conditions: in vivo, read-out: Vdss
[55] = Cmax in female Crl:CD1(ICR) mouse at 1000 mg/kg administered for 6 months measured 24 hrs post last dose with 1 month recovery; format: ADME, organism-based; set-up: dose 1000 mg/kg; conditions: in vivo
[56] = AUC (infinity) in Beagle dog at 1 mg/kg, iv or po by LC-MS/MS analysis; format: ADME, organism-based, Canis lupus familiaris; conditions: in vivo
[57] = Cmax in male Crl:CD1(ICR) mouse at 1000 mg/kg administered for 6 months measured 24 hrs post last dose; format: ADME, organism-based; set-up: dose 1000 mg/kg; conditions: in vivo
[58] = Stability of the compound in monkey liver microsomes assessed as parent compound remaining measured after 0.5 hrs; format: ADME, Macaca mulatta, Microsome; conditions: rhesus monkey, read-out: Stability
[59] = Chronic toxicity in male cynomolgus monkey assessed as NOAEL administered for 9 months; set-up: species or system Macaca fascicularis; conditions: in vivo
[60] = Stability of the compound in rat liver microsomes assessed as parent compound remaining measured after 0.5 hrs; format: ADME, Microsome; conditions: read-out: Stability
[61] = Tmax in cynomolgus monkey at 1 mg/kg, iv or po by LC-MS/MS analysis; format: ADME, organism-based, Macaca fascicularis; conditions: in vivo
[62] = Oral bioavailability in ddy mouse at 3 mg/kg by LC-MS/MS analysis; format: ADME, organism-based; conditions: in vivo

Question: Which results are given for `Cn1nccc1[C@H]1CCCC[C@@H]1Oc1cc(F)c(S(=O)(=O)Nc2ccncn2)cc1Cl` [DS-1971]?
Answer: clearance [1]: 47 mL/min/kg; Vd [2]: 1.2 L/kg; NOAEL [3]: 1000 mg/kg; bioavailability [4]: 15%; AUC(0-t) at 24 h [5]: 100 µM·h; half-life [6]: 1.54 h; NOAEL at 24 h [7]: 1000 mg/kg; Tmax [8]: 1.2 h; half-life [9]: 4 h; half-life [10]: 2.02 h; NOAEL at 9 months [11]: 1000 mg/kg; Cmax [12]: 103 nM; Tmax [13]: 0.5 h; Cmax [14]: 105 nM; Tmax [15]: 6 h; Cmax [16]: 28100 nM; NOAEL at 6 months [17]: 1000 mg/kg; AUC(0-inf) [18]: 0.277 µM·h; NOAEL [19]: 1000 mg/kg; Vd [20]: 0.57 L/kg; AUC(0-t) at 24 h [21]: 146 µM·h; NOAEL [22]: 1000 mg/kg; Cmax [23]: 22500 nM; Stability [24]: 92%; bioavailability [25]: 16%; AUC(0-inf) [26]: 0.0689 µM·h; Tmax [27]: 0.5 h; Vd [28]: 1.37 L/kg; NOAEL at 6 months [29]: 1000 mg/kg; Cmax [30]: 1570 nM; remaining at 0.5 h [31]: 66%; clearance [32]: 78.7 mL/min/kg; bioavailability [33]: 35%; Tmax [34]: 0.25 h; remaining at 0.5 h [35]: 95%; Tmax [36]: 5 min; Cmax [37]: 464 nM; clearance [38]: 45.3 mL/min/kg; Cmax [39]: 1710 nM; Vd [40]: 0.15 L/kg; clearance [41]: 6.55 mL/min/kg; AUC(0-inf) [42]: 0.103 µM·h; Tmax [43]: 0.5 h; AUC(0-inf) [44]: 2.06 µM·h; half-life [45]: 0.77 h; AUC(0-t) at 24 h [46]: 1400 µM·h; half-life [47]: 3.69 h; clearance [48]: 8.7 mL/min/kg; bioavailability [49]: 77%; AUC(0-t) at 24 h [50]: 65.9 µM·h; Tmax [51]: 1.2 h; Therm_solubility [52]: 1500 µM; NOAEL [53]: 1000 mg/kg; Vd [54]: 0.565 L/kg; Cmax [55]: 105000 nM; AUC(0-inf) [56]: 3.23 µM·h; Cmax [57]: 9440 nM; remaining at 0.5 h [58]: 78%; NOAEL at 9 months [59]: 1000 mg/kg; remaining at 0.5 h [60]: 94%; Tmax [61]: 0.83 h; bioavailability [62]: 11%
